Assay results as given in paper PMC6254723, “Synthesis and Pharmacological Screening of Several Aroyl and Heteroaroyl Selenylacetic Acid Derivatives as Cytotoxic and Antiproliferative Agents” (Molecules, 2009).
pIC50: −log10 of the molar value. “Also recorded” adds a separate entry of the source. Like-named read-outs stand apart in the source and are kept apart here.

Experiments:
[1] = tested on: PC-3 cell line; assay: MTT cytotoxicity assay in PC-3; details: Homo sapiens
Protocol: The results are tabulated as IC50 values. All experiments were independently performed at least three times and the values were calculated after 72 hours exposure (drug concentrations of 2, 5, 7 and 10 μM).
PC-3 cells were seeded in 96-well plates (Millipore, Eschborn, Germany) at a density of 5 × 10^3 cells per well. The samples were incubated at 37 °C under 5% CO2 overnight prior to the addition of the compounds. Compounds were diluted in complete medium. After 3 days of incubation, 10 μL MTT solution (5 mg/mL in PBS) was added to the cells in each well and these were stored for an additional 4 h at 37 °C. […] The percentage of viable cells was calculated to obtain IC50-values.
PC-3 are human tumorigenic and metastatic prostate cancer cells and these were obtained from American Type Culture Collection (ATCC, Manassas, VA, USA) (passage 36).

[2] = tested on: HT-29; assay: MTT cytotoxicity assay (NCI) in HT-29; assay type: cell-based, human; details: for TGI HT-29: dose that completely inhibits cell growth; for LD50 HT-29: dose that kills 50% of cells; for GI50: Homo sapiens, read-out: GI50 HT-29
Protocol: (§1) In order to investigate the effect of the active compounds in more detail, we examined the activity on proliferation in other cancer cell lines. […] Tests were carried out in the Department of Health Science, Public University of Navarra against a panel of four human tumour cell lines: lung (HTB-54), colon (HT-29), leukaemia (CCRF-CEM) and breast adenocarcinoma (MCF-7). Cytotoxicity assays were performed based on the reactivity of MTT [3-(4,5-dimethylthiazol-2-yl)-2,5-diphenyl-tetrazolium bromide], as described by NCI [39]. […] Doxorubicin was used as a control. As guidance with regard to selectivity, all of the compounds were further examined for toxicity in a mammary gland cell culture derived from non-malignant cells (184B5). Drug concentrations ranged from 0.01 to 100 μM.
(§2) The cytotoxic effects of each substance were tested at five different doses between 0.01 and 100 μM. Each substance was initially dissolved in DMSO at a concentration of 0.1 M, and serial dilutions were prepared using culture medium. The plates with cells from the different lines, to which medium containing the substance under test were added, were incubated for 72 h at 37 °C in a humidified atmosphere containing 5% CO2. European Collection of Cell Cultures (ECACC) or American Type Culture Collection (ATCC) provided human tumour cell lines. Four cell lines were used: one human lymphocytic leukemia (CCRF-CEM) and three human solid tumours, one colon carcinoma (HT-29), one lung carcinoma (HTB-54) and one breast adenocarcinoma (MCF-7). CCRF-CEM, HT-29 and HTB-54 cells were grown in RPMI 1640 medium (Life Technologies, Carlsbad, CA, USA) supplemented with 10% foetal calf serum, 2 mM L-glutamine, 100 units/mL penicillin, 100 μg/mL streptomycin and 10 mM HEPES buffer (pH = 7.4). MCF-7 cells were grown in EMEM medium (Clonetics) supplemented with 10% foetal calf serum, 2 mM L-glutamine, 100 units/mL penicillin and 100 μg/mL streptomycin. 184B5 cells were grown Hams F-12/DMEM (50:50) supplemented as described by Li et al.. Cytotoxicity was then determined by the MTT method. […] Data were obtained from at least three independent experiments performed in quadruplicate.

[3] = tested on: HTB-54; assay: MTT cytotoxicity assay (NCI) in HTB-54; assay type: cell-based, human; details: for TGI HTB-54: dose that completely inhibits cell growth; for LD50 HTB-54: dose that kills 50% of cells; for GI50: Homo sapiens, read-out: GI50 HTB-54
Protocol: as §1, §2

[4] = tested on: MCF-7 cells; assay: Apoptosis, Apo-Direct kit (TUNEL); assay type: cell-based, human; details: MCF-7, 25 μM, 48 hours
Protocol: The apoptotic status of the cells after 48 hours of treatment with 25 μM of the corresponding compound was determined using the Apo-Direct kit (BD Pharmingen) based on the TUNEL technique. Camptothecin was used as a positive control.
(§3) For breast adenocarcinoma MCF-7 cells, the apoptotic status and cell cycle analysis of the cells were determined using the Apo-Direct kit (BD Pharmingen), based on the TUNEL technique, under the conditions described by the manufacturer.

[5] = tested on: MCF-7 cells; assay: Cell cycle progression by flow cytometry; assay type: cell-based, human; details: MCF-7, 25 μM, 48 hours
Protocol: Cell cycle arrest is one of the targets of many anticancer drugs, including doxorubicin and camptothecin. In an effort to ascertain whether compound 1 could affect cell cycle progression in MCF-7 cells, these cells were treated with 25 μM of the corresponding compound for 48 hours and cell cycle progression was determined by flow cytometry analysis.
as §3

[6] = MTT toxicity assay in non-malignant mammary gland cells 184B5; assay type: cell-based; details: human
Protocol: as §1, §2

[7] = tested on: 184B5; assay: as above; assay type: cell-based; details: for TGI 184B5 / LD50 184B5: 72 h; for LD50 184B5: dose that kills 50% of cells; for selectivity index (184B5/MCF-7 LD50 ratio): LD50 in 184B5 divided by LD50 in MCF-7
Protocol: as §1, §2

[8] = tested on: MCF-7; assay: MTT cytotoxicity assay (NCI) in MCF-7; assay type: cell-based, human; details: for TGI MCF-7: dose that completely inhibits cell growth; for LD50 MCF-7: dose that kills 50% of cells; for GI50: Homo sapiens, read-out: GI50 MCF-7
Protocol: as §1, §2

[9] = tested on: CCRF-CEM; assay: MTT cytotoxicity assay (NCI) in CCRF-CEM; assay type: cell-based, human; details: 72 h; for TGI CCRF-CEM: dose that completely inhibits cell growth; for LD50 CCRF-CEM: dose that kills 50% of cells; for GI50: Homo sapiens, CCRF-CEM, read-out: GI50 CCRF-CEM
Protocol: as §1, §2

[10] = PC-3, 72 h, read-out: IC50 PC-3 cell line
[11] = PC-3, read-out: IC50 (cytotoxic activity in PC-3 cell line)
[12] = listed as benzoylselenylacetic acid
[13] = HT-29, 72 h, dose that inhibits 50% of cell growth
[14] = HTB-54, 72 h, dose that inhibits 50% of cell growth
[15] = MCF7, 72 h, dose that inhibits 50% of cell growth
[16] = dose that inhibits 50% of cell growth

SMILES | pIC50 [1, 10] | pIC50 [1, 11] | TGI HT-29 ([2]; 72 h) [µM] | LD50 HT-29 ([2]; 72 h) [µM] | TGI HTB-54 ([3]; 72 h) [µM] | LD50 HTB-54 ([3]; 72 h) [µM] | LD50 184B5 ([7]; non-malignant cells) [µM] | selectivity index (184B5/MCF-7 LD50 ratio) [7] | TGI MCF-7 ([8]; 72 h) [µM] | LD50 MCF-7 ([8]; 72 h) [µM] | TGI CCRF-CEM [9] [µM] | LD50 CCRF-CEM [9] [µM] | GI50 [2, 13] [µM] | GI50 [3, 14] [µM] | GI50 at 72 h [6] [µM] | TGI 184B5 ([7]; human) [µM] | GI50 [8, 15] [µM] | GI50 [9, 16] [µM] | also measured
O=C(O)C[Se]C(=O)c1ccccc1 [Compound 1, (Benzoylselenyl)acetic acid] | 5.17 | 5.17 | 55.98 | >100 | 42.47 | >100 | 76.73 | 1.3 | 3.69 | 58.01 | >100 | >100 | – | – | – | – | – | – | GI50 ([2]; HT-29, 72 h): 7.39 µM; GI50 ([3]; HTB-54, 72 h): 0.58 µM; induction of apoptosis [4]: induction of cell death was independent of the apoptotic process; also recorded: mechanism of action is independent of apoptosis; induction of apoptosis [4, 12]: did not provoke apoptosis; effect on cell cycle progression [5]: did not induce any specific phase arrest of the cell cycle; effect on cell cycle progression [5, 12]: nor did it perturb the cell cycle; GI50 at 72 h ([6]; 72 h, non-malignant cells, dose that inhibits 50% of cell growth, read-out: GI50 184B5): 1.97 µM; TGI 184B5 ([7]; non-malignant cells, dose that completely inhibits cell growth): 22.50 µM; GI50 ([8]; MCF7, 72 h): 0.09 µM; GI50 [9]: > 100 µM
N#Cc1ccc(C(=O)[Se]CC(=O)O)cc1 [Compound 2, (4-cyanobenzoylselenyl)acetic acid] | 5.00 | 5.00 | 51.95 | >100 | 9.91 | >100 | 78.91 | 3.4 | 6.54 | 23.12 | >100 | >100 | 8.95 | 1.9 | 2.29 | 20.14 | 2.64 | > 100 | –
O=C(O)C[Se]C(=O)Cc1ccccc1 [Compound 11, Phenylacetoylselenylacetic acid] | 5.54 | 5.54 | 72.19 | >100 | >100 | >100 | 72.34 | – | 4.18 | 53.49 | >100 | >100 | 16.2 | 11.1 | 1.05 | 9.64 | 0.006 | > 100 | TGI MCF-7 ([8]; 72 h, listed as benzyl): 6.19 µM
COc1cc(OC)cc(C(=O)[Se]CC(=O)O)c1 [Compound 14, (3,5-dimethoxy-benzoylselenyl)acetic acid] | 5.40 | 5.40 | 47.42 | >100 | >100 | >100 | 62.55 | – | 6.19 | 52.65 | >100 | >100 | 5.99 | 16.8 | 0.0009 | 8.21 | 1.57 | > 100 | TGI MCF-7 ([8]; 72 h, listed as 3,5-dimethoxyphenyl): 4.18 µM
O=C(O)C[Se]C(=O)c1cccnc1Cl [Compound 21, (3-(2-chloro)-pyridoylselenyl)acetic acid] | 5.00 | 5.00 | 60.94 | >100 | >100 | >100 | 7.20 | – | 8.27 | 89.21 | >100 | >100 | 7.53 | 11.8 | 0.05 | 1.89 | 0.003 | > 100 | –
